Residue numbers refer to the chain shown, from its start. Structures can show the parent of a compound that is named as a salt.

This is an account of results in paper PMC3894639 (Pharmacogenetics and genomics, 2013).

For series [1], the system named is HEK293/FRT cells, empty vector. Description: Uptake by HEK293/FRT cells with empty vector. The format is cell-based, human.
In a further series the target is T1, OATP1B1 reference (Homo sapiens, UniProt Q9Y6L6).
T1 sequence (Q9Y6L6 1-691): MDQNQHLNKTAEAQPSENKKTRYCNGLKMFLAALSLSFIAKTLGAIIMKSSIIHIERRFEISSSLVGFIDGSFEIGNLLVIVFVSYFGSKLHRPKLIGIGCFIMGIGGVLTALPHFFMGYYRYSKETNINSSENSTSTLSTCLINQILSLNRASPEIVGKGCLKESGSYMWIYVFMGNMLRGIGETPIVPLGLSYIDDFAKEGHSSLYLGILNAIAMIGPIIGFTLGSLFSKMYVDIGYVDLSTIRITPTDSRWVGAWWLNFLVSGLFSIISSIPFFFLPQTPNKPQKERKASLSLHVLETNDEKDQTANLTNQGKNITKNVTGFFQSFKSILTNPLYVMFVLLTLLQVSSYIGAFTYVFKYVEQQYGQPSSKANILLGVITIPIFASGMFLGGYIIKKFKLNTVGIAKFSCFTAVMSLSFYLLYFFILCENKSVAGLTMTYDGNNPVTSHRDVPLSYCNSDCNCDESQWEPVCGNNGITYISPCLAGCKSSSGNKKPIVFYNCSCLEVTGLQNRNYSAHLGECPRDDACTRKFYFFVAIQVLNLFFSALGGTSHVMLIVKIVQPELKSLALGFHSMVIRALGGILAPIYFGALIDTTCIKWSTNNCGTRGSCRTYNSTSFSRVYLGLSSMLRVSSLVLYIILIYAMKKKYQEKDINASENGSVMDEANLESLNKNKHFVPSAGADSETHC
The settings on record: 20 nmol/l [3H]-ES, 5 min, 37°C.

The target in the next series is T2, OATP1B1*15 (Homo sapiens, UniProt Q9Y6L6, N130D/V174A).
T2 sequence (Q9Y6L6 1-691 N130D/V174A): T1 sequence (Q9Y6L6 1-691) with N130D, V174A
Particulars: 20 nmol/l [3H]-ES.

The next series has as its target T3, OATP1B1 T345M (Homo sapiens, UniProt Q9Y6L6, T345M).
T3 sequence (Q9Y6L6 1-691 T345M): T1 sequence (Q9Y6L6 1-691) with T345M
Particulars: 20 nmol/l [3H]-ES.

The subject of the next series is OATP1B1 FS (974insGT). Particulars: 5 nmol/l [3H]-CER; frameshift insertion.
The test system of another series is SLCO1B1 521T>C. The settings on record: SLCO1B1 521T>C polymorphism; cited from earlier work.

Consider `C[C@]12CC[C@@H]3c4ccc(OS(=O)(=O)O)cc4CC[C@H]3[C@@H]1CCC2=O` [ES, [^3H]-Estrone-3-sulfate ammonium salt], for which the ES transport rate is listed as 0.01±0.006 pmol/mg of protein/min in series [1] (20 nmol/l [3H]-ES) and 0.2±0.01 pmol/mg of protein/min at OATP1B1 reference. For the same compound, on OATP1B1*15, the “Decrease in ES transport vs reference” value turned out to be 66%. Further, the “ES uptake, fraction of reference” value on OATP1B1 T345M is on record as 0.43±0.07 of reference.

Turning to `COCc1c(C(C)C)nc(C(C)C)c(/C=C/[C@@H](O)C[C@@H](O)CC(=O)O)c1-c1ccc(F)cc1` [cerivastatin, [^3H]-Cerivastatin sodium salt], the “Cerivastatin uptake transport rate” value in series [1] (5 nmol/l [3H]-CER) was 0.02±0.01 pmol/mg of protein/min. Further, the “Cerivastatin uptake, % of reference” value in the series on OATP1B1 FS (974insGT) is reported as 3.4 % of reference. Besides, the “Reduction in cerivastatin uptake” value with SLCO1B1 521T>C was 40%.
